Values quoted from earlier work, collected in patent US20220242810A1, “CRYSTALLINE CANNABIGEROL” (Purisys LLC, priority 2019, published 2022).

What was measured:
5-HT1A receptor = molecular target: T1, 5-HT1A receptor (Homo sapiens, UniProt P08908)
T1 sequence (P08908 1-422): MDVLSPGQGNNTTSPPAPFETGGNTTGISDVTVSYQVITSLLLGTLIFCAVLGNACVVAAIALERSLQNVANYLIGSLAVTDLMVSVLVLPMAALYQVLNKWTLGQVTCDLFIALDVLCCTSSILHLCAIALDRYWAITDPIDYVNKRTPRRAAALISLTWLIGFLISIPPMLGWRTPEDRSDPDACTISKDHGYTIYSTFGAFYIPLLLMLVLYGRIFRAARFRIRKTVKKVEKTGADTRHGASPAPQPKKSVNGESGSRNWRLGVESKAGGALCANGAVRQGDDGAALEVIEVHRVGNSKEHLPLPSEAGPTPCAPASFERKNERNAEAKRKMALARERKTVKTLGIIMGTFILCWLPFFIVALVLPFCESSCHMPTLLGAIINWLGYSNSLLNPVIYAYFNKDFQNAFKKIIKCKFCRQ

[1] = rats
colon cancer cells = details: one study
CBI receptor = CBI receptor (Homo sapiens, UniProt P21554)
[2] = in vivo
[3] = system: uptake of γ-aminobutyric acid (GABA)
CB2 receptor = CB2 receptor (Homo sapiens, UniProt P34972); details: unknown whether agonist or antagonist
Chain of CB2 receptor (P34972 whole entry): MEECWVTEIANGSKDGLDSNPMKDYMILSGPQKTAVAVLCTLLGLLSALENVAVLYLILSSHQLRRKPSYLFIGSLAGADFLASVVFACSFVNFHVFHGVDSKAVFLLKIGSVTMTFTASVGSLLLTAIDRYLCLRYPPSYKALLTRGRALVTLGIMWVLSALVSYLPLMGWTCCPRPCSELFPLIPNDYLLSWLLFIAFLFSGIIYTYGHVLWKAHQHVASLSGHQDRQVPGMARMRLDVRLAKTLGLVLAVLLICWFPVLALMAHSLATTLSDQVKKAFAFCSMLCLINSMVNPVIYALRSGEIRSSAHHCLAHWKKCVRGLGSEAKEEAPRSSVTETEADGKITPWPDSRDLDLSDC

Chain of CBI receptor (P21554 whole entry): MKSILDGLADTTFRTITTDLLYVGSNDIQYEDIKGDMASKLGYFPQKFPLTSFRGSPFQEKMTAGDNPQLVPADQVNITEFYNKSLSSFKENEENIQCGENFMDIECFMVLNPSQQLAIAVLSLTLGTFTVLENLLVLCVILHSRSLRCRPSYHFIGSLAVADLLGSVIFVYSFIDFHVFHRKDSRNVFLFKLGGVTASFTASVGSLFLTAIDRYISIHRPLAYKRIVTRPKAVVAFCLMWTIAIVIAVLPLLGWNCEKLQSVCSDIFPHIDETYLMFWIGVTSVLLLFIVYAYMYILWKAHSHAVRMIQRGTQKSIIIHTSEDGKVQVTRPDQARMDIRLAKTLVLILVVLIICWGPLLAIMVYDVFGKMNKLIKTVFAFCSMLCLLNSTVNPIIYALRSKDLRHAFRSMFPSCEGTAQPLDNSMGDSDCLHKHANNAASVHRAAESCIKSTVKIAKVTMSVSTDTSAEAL

## CCCCCc1cc(O)c(C/C=C(\C)CCC=C(C)C)c(O)c1 [CBG, 2-[(2E)-3,7-dimethylocta-2,6-dienyl]-5-pentyl-benzene-1,3-diol]
5-HT1A receptor
  affinity as 5-HT1A receptor antagonist: moderate affinity
α2-adrenergic receptor
  affinity as α2-adrenergic receptor agonist: high affinity
[1]
  anti-nausea and anti-emetic effect: anti-nausea and anti-emetic effect
Colon cancer cells
  growth of colon cancer cells: inhibits the growth
CBI receptor
  affinity as CBI receptor antagonist: low affinity
[2]
  effect on intraocular pressure: relieve intraocular pressure
[3]
  uptake of γ-aminobutyric acid (GABA) in the brain: inhibits the uptake
CB2 receptor
  binding with the CB2 receptor: known to bind
